In paper PMC12520456, “Regulating Enzyme Activity via Microaggregates Mediated by Phase Separation” (Advanced Science, 2025):
Non-standard residues stand in square brackets, D forms with d. Residues, ends and D or L forms follow the SMILES beside them.

Assays:
[1] = molecular target: T1, chymotrypsin pre-incubated with aprotinin (Bos taurus, UniProt P00766); test: Fluorescence anisotropy binding, aprotinin-blocked chymotrypsin; conditions: inhibitor and protein both at 20 μM; Figure S3C
T1 construct: purchased Aladdin (chymotrypsin); Yeasen Biotechnology (aprotinin)
From the text: Figure S3. The fluorescent anisotropy evaluation of binding affinity between DPMD peptide with Proteinase K (A), and inhibitor-saturated and blocked trypsin (B) and chymotrypsin (C). Trypsin/Chymotrypsin was saturated and blocked by aprotinin (Yeasen Biotechnology, trypsin/chymotrypsin inhibitor). (D-H) The fluorescent anisotropy evaluation of binding affinity between DPMD peptide with elastase (D), lipase (E), amylase(F), carboxypeptidase (G), albumin (H) and immunoglobulins (I).
Figure S4. The DLS analysis of trypsin, chymotrypsin and DPMD with/without trypsin or chymotrypsin. […]
data acquisition. A series of enzyme solutions with varying concentrations (maximum concentrations of trypsin and chymotrypsin were 20 μM each) were prepared in Tris-HCl buffer (10 mM Tris, 150 mM NaCl, 1 mM EDTA, pH 7.0). These enzyme solutions were added to the 96-well plate and incubated with 100 nM DPMD at room temperature for 30 minutes, with triplicates.
Fluorescence polarization was measured with an excitation wavelength of 470 nm and an emission […]
Plot the fluorescence intensity versus concentration data as scatter plots using Origin software.
For data analysis, fit the concentration-fluorescence polarization data with the logistic function in Origin 2021 software to obtain the fitting curve and determine the half-maximal effective concentration (EC50). […]

HUVEC = type: cell-based; conditions: 48 h
Protocol: (§1) and the product's absorbance at […] was dynamically and real-time monitored using a microplate […]
(§2) During the chymotrypsin activity assay, DPMD was incorporated into chymotrypsin. The final concentration of chymotrypsin was set at 10 μg/mL, and the final concentration of DPMD was 5 mg/mL. In the corresponding control group, an equal volume of the buffer solution prepared by the kit was added. Subsequently, the enzyme-peptide mixture was added to the reaction system containing the substrate N-Benzoyl-L-Tyrosine Ethyl Ester (BTEE) at a ratio of 1:100 (where the proportion of the enzyme-peptide mixture solution was 1) for the detection of enzyme activity. The reaction was carried out at 25 ℃, and the product's absorbance at 256 nm was dynamically and real-time monitored using a microplate reader. The experimental result was represented by the enzyme reaction's degree of completion. All the tests were repeated three independent times.
(§3) NIH-3T3 cells were obtained from the National Collection of Authenticated Cell Cultures. HUVECs were obtained from Procell. All cells were maintained in DMEM media at 37°C with 5% CO₂. […] Cell viability was evaluated by the CCK-8 assay (Dojindo) at 1-, 3-, 5-, and 7-days post-treatment. […] The absorbance at 450 nm was recorded using a microplate reader […]

NIH-3T3 cells = type: cell-based; conditions: 48 h
Protocol: as §1, §2, §3

NIH-3T3 or HUVEC = test: Annexin V/PI apoptosis assay by flow cytometry; type: cell-based; conditions: 48 h; DPMD, also pre-incubated with trypsin or chymotrypsin; Figure S14B
Protocol: as §1, §2
NIH-3T3 cells were obtained from the National Collection of Authenticated Cell Cultures. […] Cell viability was evaluated by the CCK-8 assay (Dojindo) at 1-, 3-, 5-, and 7-days post-treatment. […] The absorbance at 450 nm was recorded using a microplate reader […]
was performed using an Annexin V-Alexa Fluor 647/PI kit (Solarbio) according to the manufacturer’ s protocol. […] Samples were analyzed within 1h on a Sony MA900 flow cytometer.
3.12 Animal fluorescence imaging […]

`CC[C@@H](C)[C@@H](NC(=O)[C@@H](CCC(N)=O)NC(=O)[C@H](NC(=O)[C@@H](Cc1ccc(O)cc1)NC(=O)CNC(=O)[C@@H](CC(C)C)NC(=O)[C@H](NC(=O)[C@@H](CO)NC(=O)CNC(=O)[C@@H](C)NC(=O)[C@@H](CC(=O)O)NC(=O)[C@@H](C)NC(=O)[C@@H](CCCNC(=N)N)NC(=O)[C@@H](C)NC(=O)[C@@H](CC(=O)O)NC(=O)[C@@H](C)NC(=O)[C@@H](CCCNC(=N)N)NC(=O)[C@@H](C)NC(=O)[C@@H](CC(=O)O)NC(=O)[C@@H](C)NC(=O)[C@@H](CCCNC(=N)N)NC(=O)[C@@H](C)NC(=O)[C@@H](CC(=O)O)NC(=O)[C@@H](C)NC(=O)[C@H](N)CCCNC(=N)N)C(C)C)[C@H](C)CC)C(=O)N[C@H](CCCNC(=N)N)C(=O)O` [DPMD, Ac‐(D‐RADA)4‐CONH2] (H-[dR][dA][dD][dA][dR][dA][dD][dA][dR][dA][dD][dA][dR][dA][dD][dA]G[dS][dV][dL]G[dY][dI][dQ][dI][dR]-OH; N-terminus and C-terminus assumed) was tested, and the “anisotropy change with aprotinin-blocked chymotrypsin” value [1] was “only a minimal anisotropy change”, the cell viability (HUVEC) was over 90% and the cell viability (NIH-3T3 cells) was over 90%. For the same compound, the “apoptosis or necrosis (Annexin V/PI)” value (NIH-3T3 or HUVEC) was “no increase in apoptosis or necrosis”.
